Like-named read-outs stand apart in the source and are kept apart here.
Assays:
[1] = test system: grade 2 or higher acute allergic reaction
Description: Institutional Review Board approval was obtained for the study and informed consent was obtained from study participants.

[2] = Commercial actuator, previously reported, cited from earlier work
[3] = Procedure: Briefly, a Next Generation Impactor (Model 170 NGI; Copley) was used to capture dose exiting a regular non-sectioned AIT (used here to minimize assay steps) at an inhalation flowrate of 30 L/min. Interior surfaces of the AIT and the impaction plates within the NGI were coated with silicone grease (Molykote 316; Dow Corning) prior to testing. […] Following actuation, the AIT was washed twice with 10 mL of 0.1 N HCl, while each plate of the NGI was washed once with 5 mL of 0.1 N HCl. Samples were assayed via UV spectroscopy at the absorbance maximum of 279 nm, as discussed above.
Tests were performed using the 0.22 mm actuator orifice with Primatene Mist HFA. Both transverse and coaxial insertion angles were used, with three repeated measures taken at each orientation. Particle size distributions were characterized via calculation of the mass median aerodynamic diameter (MMAD) and geometric standard deviation (GSD) via linear interpolation (e.g., Hinds W C. 2nd ed. Hoboken, N.J.: Wiley; 1999). A validated regional lung deposition model (e.g., Javaheri et al., J Aerosol Sci. 2013, 64:81-93 and Finlay et al., Lung Delivery of Aerosolized Dextran. 2000, 161:91-7) was used to estimate tracheobronchial and alveolar deposition from the measured particle size distributions under a simulated breath with an inhaled volume of 3.0 L, inhalation flowrate of 30 L/min, a pause between inhalation of (i) 0 or (ii) 10 seconds, and exhalation flowrate of 30 L/min.

[4] = 0.22 mm actuator orifice, unaffected by insertion angle
[5] = 0.22 mm actuator, Coaxial, 30 L/min
[6] = 0.22 mm actuator, Transverse, 30 L/min

CNCC(O)c1ccc(O)c(O)c1 (stereo not drawn) [epinephrine, 4-(1-hydroxy-2-(methylamino)ethyl)benzene-1,2-diol]
Tachycardia ([1]; Patient 1, 4 puffs given): Yes
Time to Resolution of Allergic Reaction After Treatment Initiated ([1]; Patient 1, 4 puffs given): 3 min
Tremors ([1]; Patient 1, 4 puffs given): Yes
Tachycardia ([1]; Patient 2, 4 puffs given): Yes
Time to Resolution of Allergic Reaction After Treatment Initiated ([1]; Patient 2, 4 puffs given): within 2 mins
Tremors ([1]; Patient 2, 4 puffs given): Yes
Tachycardia ([1]; Patient 3, 4 puffs given): Yes
Time to Resolution of Allergic Reaction After Treatment Initiated ([1]; Patient 3, 4 puffs given): 0.5 min
Tremors ([1]; Patient 3, 4 puffs given): Yes
Tachycardia ([1]; Patient 4, 2 puffs given): Yes
Time to Resolution of Allergic Reaction After Treatment Initiated ([1]; Patient 4, 2 puffs given): 1 min
Tremors ([1]; Patient 4, 2 puffs given): Yes
Tachycardia ([1]; Patient 5, 6 puffs given): Yes
Time to Resolution of Allergic Reaction After Treatment Initiated ([1]; Patient 5, 6 puffs given): 6 min
Tremors ([1]; Patient 5, 6 puffs given): Yes
Tachycardia ([1]; Patient 6, 9 puffs given): Yes
Tremors ([1]; Patient 6, 9 puffs given): Yes
Time to Resolution of Allergic Reaction After Treatment Initiated ([1]; Patient 6, 9 puffs given, entry runs on: resolved after 5 puffs, but recurred after 5 mins): resolved after 5
Time to recurrence of allergic reaction after resolution ([1]; Patient 6, 9 puffs given, resolved after 5 puffs): after 5 mins
Tachycardia ([1]; Patient 7, 2 puffs given): Yes
Time to Resolution of Allergic Reaction After Treatment Initiated ([1]; Patient 7, 2 puffs given): 2 min
Tremors ([1]; Patient 7, 2 puffs given): Yes
Tachycardia ([1]; Patient 8, 2 puffs given): Yes
Time to Resolution of Allergic Reaction After Treatment Initiated ([1]; Patient 8, 2 puffs given): 1 min
Tremors ([1]; Patient 8, 2 puffs given): Yes
Tachycardia ([1]; Patient 9, 2 puffs given): Yes
Time to Resolution of Allergic Reaction After Treatment Initiated ([1]; Patient 9, 2 puffs given): 1 min
Tremors ([1]; Patient 9, 2 puffs given): Yes
Tachycardia ([1]; Patient 10, 5 puffs given): Yes
Time to Resolution of Allergic Reaction After Treatment Initiated ([1]; Patient 10, 5 puffs given): 1 min
Tremors ([1]; Patient 10, 5 puffs given): Yes
Tachycardia ([1]; Patient 11, 2 puffs given): Yes
Tremors ([1]; Patient 11, 2 puffs given): Yes
Tachycardia ([1]; Patient 12, 2 puffs given): Yes
Time to Resolution of Allergic Reaction After Treatment Initiated ([1]; Patient 12, 2 puffs given): 1 min
Tremors ([1]; Patient 12, 2 puffs given): Yes
Tachycardia ([1]; Patient 13, 2 puffs given): Yes
Time to Resolution of Allergic Reaction After Treatment Initiated ([1]; Patient 13, 2 puffs given): 1 min
Tremors ([1]; Patient 13, 2 puffs given): Yes
Tachycardia ([1]; Patient 14, 2 puffs given): Yes
Time to Resolution of Allergic Reaction After Treatment Initiated ([1]; Patient 14, 2 puffs given): 1 min
Tremors ([1]; Patient 14, 2 puffs given): Yes
Tachycardia ([1]; Patient 15, 6 puffs given): Yes
Time to Resolution of Allergic Reaction After Treatment Initiated ([1]; Patient 15, 6 puffs given): 4 min
Tremors ([1]; Patient 15, 6 puffs given): Yes
Tachycardia ([1]; Patient 16, 4 puffs given): Yes
Time to Resolution of Allergic Reaction After Treatment Initiated ([1]; Patient 16, 4 puffs given): 1.5 min
Tremors ([1]; Patient 16, 4 puffs given): Yes
Tachycardia ([1]; Patient 17, 3 puffs given): Yes
Time to Resolution of Allergic Reaction After Treatment Initiated ([1]; Patient 17, 3 puffs given): 1.5 min
Tremors ([1]; Patient 17, 3 puffs given): Yes
Tachycardia ([1]; Patient 18, 2 puffs given): Yes
Time to Resolution of Allergic Reaction After Treatment Initiated ([1]; Patient 18, 2 puffs given): within 30 secs
Tremors ([1]; Patient 18, 2 puffs given): Yes
Tachycardia ([1]; Patient 19, 4 + 2 puffs given): Yes
Time to recurrence of allergic reaction after resolution ([1]; Patient 19, 4 + 2 puffs given): after 10 mins, then
Tremors ([1]; Patient 19, 4 + 2 puffs given): Yes
Time to resolution of the recurred allergic reaction ([1]; Patient 19, 4 + 2 puffs given, after recurrence): resolved in 1 min
Time to Resolution of Allergic Reaction After Treatment Initiated ([1]; Patient 19, 4 + 2 puffs given, initial resolution): 1 minute, recurred
Need for treatment with intramuscular epinephrine ([1]; all study participants): No study participants required treatment with intramuscular epinephrine
Resolution of clinical symptoms (laryngopharyngeal and systemic) ([1]; all study participants, Primatene Mist HFA via Bespak BK633 actuator (0.22 mm)): prompt resolution of clinical symptoms
Recurrence of symptoms after initial resolution ([1]; all study participants, further doses of oral inhaled epinephrine given): In two instances symptoms recurred after initial resolution and again resolved promptly
Deposition, NGI Stage 1 ([2]; Coaxial): 2.1 µg
Deposition, NGI Stage 2 ([2]; Coaxial): 2.5 µg
Deposition, NGI Stage 3 ([2]; Coaxial): 11.1 µg
Deposition, NGI Stage 4 ([2]; Coaxial): 72.9 µg
Deposition, NGI Stage 5 ([2]; Coaxial): 99.1 µg
Deposition, NGI Stage 6 ([2]; Coaxial): 34.1 µg
Deposition, NGI Stage 7 ([2]; Coaxial): 6.3 µg
Deposition, NGI Stage 8 ([2]; Coaxial): 0.0 µg
Deposition, Throat ([2]; Coaxial): 136.3 µg
Deposition, Total Recovered ([2]; Coaxial): 364.3 µg
Deposition, NGI Stage 1 ([2]; Transverse): 0.8 µg
Deposition, NGI Stage 2 ([2]; Transverse): 1.1 µg
Deposition, NGI Stage 3 ([2]; Transverse): 6.8 µg
Deposition, NGI Stage 4 ([2]; Transverse): 56.0 µg
Deposition, NGI Stage 5 ([2]; Transverse): 96.8 µg
Deposition, NGI Stage 6 ([2]; Transverse): 37.7 µg
Deposition, NGI Stage 7 ([2]; Transverse): 6.6 µg
Deposition, NGI Stage 8 ([2]; Transverse): 0.0 µg
Deposition, Throat ([2]; Transverse): 212.9 µg
Deposition, Total Recovered ([2]; Transverse): 418.8 µg
GSD [3, 4]: ~1.63
MMAD [3, 4]: approximately 2 μm
Deposition, NGI Stage 1 [3, 5]: 1.9 µg
Deposition, NGI Stage 2 [3, 5]: 1.9 µg
Deposition, NGI Stage 3 [3, 5]: 8.5 µg
Deposition, NGI Stage 4 [3, 5]: 82.6 µg
Deposition, NGI Stage 5 [3, 5]: 122.2 µg
Deposition, NGI Stage 6 [3, 5]: 42.0 µg
Deposition, NGI Stage 7 [3, 5]: 7.6 µg
Deposition, NGI Stage 8 [3, 5]: 0.0 µg
Deposition, Throat [3, 5]: 78.6 µg
Deposition, Total Recovered [3, 5]: 345.2 µg
MMAD (mass median aerodynamic diameter) [3, 5]: 2.00 μm
Deposition, NGI Stage 1 [3, 6]: 1.5 µg
Deposition, NGI Stage 2 [3, 6]: 1.4 µg
Deposition, NGI Stage 3 [3, 6]: 8.8 µg
Deposition, NGI Stage 4 [3, 6]: 80.8 µg
Deposition, NGI Stage 5 [3, 6]: 121.7 µg
Deposition, NGI Stage 6 [3, 6]: 43.6 µg
Deposition, NGI Stage 7 [3, 6]: 9.5 µg
Deposition, NGI Stage 8 [3, 6]: 0.0 µg
Deposition, Throat [3, 6]: 95.8 µg
Deposition, Total Recovered [3, 6]: 363.0 µg
MMAD (mass median aerodynamic diameter) [3, 6]: 1.98 μm
MMAD (mass median aerodynamic diameter) ([3]; Commercial actuator, Coaxial, calculated here from previously reported deposition): 2.05 μm
MMAD (mass median aerodynamic diameter) ([3]; Commercial actuator, Transverse, calculated here from previously reported deposition): 1.93 μm

— US20220331237A1, “DEVICE, METHODS AND USES FOR TREATING ANAPHYLAXIS” (1232176 B.C. Ltd., priority 2021, published 2022)
